ChEMBL document CHEMBL1131398, “First synthesis of alternating SATE-phosphotriester/phosphodiester prooligonucleotides on solid support” (Bioorg Med Chem Lett, 1998)

Columns and labels:
[1] = Half-life in the presence of total cell extract(TCE) was evaluated.; type: ADME
[2] = Lipophilicity of compound evaluated by HPLC retention time on reverse phase C18 column; type: physicochemical
[3] = Half-life in the presence of pig liver esterase(PLE) was evaluated; […]; type: ADME, Sus scrofa; conditions: in vitro
[4] = Half-life in the presence of pig liver esterase(PLE) was evaluated.; type: ADME, tissue-based, Sus scrofa

half-life [1]	Retention time [2]	T1/2 [3]	half-life [4]	SMILES
3 h	51.9 min	Stable		Cc1cn([C@H]2C[C@H](OP(=O)(O)S)[C@@H](COP(=O)(OCCSC(=O)C(C)(C)C)O[C@H]3C[C@H](n4cc(C)c(=O)[nH]c4=O)O[C@@H]3COP(=O)(S)O[C@H]3C[C@H](n4cc(C)c(=O)[nH]c4=O)O[C@@H]3COP(=O)(OCCSC(=O)C(C)(C)C)O[C@H]3C[C@H](n4cc(C)c(=O)[nH]c4=O)O[C@@H]3COP(=O)(S)O[C@H]3C[C@H](n4cc(C)c(=O)[nH]c4=O)O[C@@H]3COP(=O)(OCCSC(=O)C(C)(C)C)O[C@H]3C[C@H](n4cc(C)c(=O)[nH]c4=O)O[C@@H]3COP(=O)(S)O[C@H]3C[C@H](n4cc(C)c(=O)[nH]c4=O)O[C@@H]3COP(=O)(OCCSC(=O)C(C)(C)C)O[C@H]3C[C@H](n4cc(C)c(=O)[nH]c4=O)O[C@@H]3COP(=O)(S)O[C@H]3C[C@H](n4cc(C)c(=O)[nH]c4=O)O[C@@H]3COP(=O)(OCCSC(=O)C(C)(C)C)O[C@H]3C[C@H](n4cc(C)c(=O)[nH]c4=O)O[C@@H]3COP(=O)(S)O[C@H]3C[C@H](n4cc(C)c(=O)[nH]c4=O)O[C@@H]3COP(=O)(OCCSC(=O)C(C)(C)C)O[C@H]3C[C@H](n4cc(C)c(=O)[nH]c4=O)O[C@@H]3CO)O2)c(=O)[nH]c1=O (stereo not given in full)
2.5 h	51.7 min	Stable		Cc1cn([C@H]2C[C@H](OP(=O)(O)OC[C@H]3O[C@@H](n4cc(C)c(=O)[nH]c4=O)C[C@@H]3OP(=S)(OCCSC(=O)C(C)(C)C)OC[C@H]3O[C@@H](n4cc(C)c(=O)[nH]c4=O)C[C@@H]3OP(=O)(O)OC[C@H]3O[C@@H](n4cc(C)c(=O)[nH]c4=O)C[C@@H]3OP(=S)(OCCSC(=O)C(C)(C)C)OC[C@H]3O[C@@H](n4cc(C)c(=O)[nH]c4=O)C[C@@H]3OP(=O)(O)OC[C@H]3O[C@@H](n4cc(C)c(=O)[nH]c4=O)C[C@@H]3OP(=S)(OCCSC(=O)C(C)(C)C)OC[C@H]3O[C@@H](n4cc(C)c(=O)[nH]c4=O)C[C@@H]3OP(=O)(O)OC[C@H]3O[C@@H](n4cc(C)c(=O)[nH]c4=O)C[C@@H]3OP(=S)(OCCSC(=O)C(C)(C)C)OC[C@H]3O[C@@H](n4cc(C)c(=O)[nH]c4=O)C[C@@H]3OP(=O)(O)OC[C@H]3O[C@@H](n4cc(C)c(=O)[nH]c4=O)C[C@@H]3OP(=S)(OCCSC(=O)C(C)(C)C)OC[C@H]3O[C@@H](n4cc(C)c(=O)[nH]c4=O)C[C@@H]3OP(=O)(O)OC[C@H]3O[C@@H](n4cc(C)c(=O)[nH]c4=O)C[C@@H]3OP(O)(=S)OCCSC(=O)C(C)(C)C)[C@@H](CO)O2)c(=O)[nH]c1=O (stereo not given in full)
1 h	48.8 min	Stable		Cc1cn([C@H]2C[C@H](OP(=O)(O)O)[C@@H](COP(=O)(OCCSC(=O)C(C)(C)C)O[C@H]3C[C@H](n4cc(C)c(=O)[nH]c4=O)O[C@@H]3COP(=O)(O)O[C@H]3C[C@H](n4cc(C)c(=O)[nH]c4=O)O[C@@H]3COP(=O)(OCCSC(=O)C(C)(C)C)O[C@H]3C[C@H](n4cc(C)c(=O)[nH]c4=O)O[C@@H]3COP(=O)(O)O[C@H]3C[C@H](n4cc(C)c(=O)[nH]c4=O)O[C@@H]3COP(=O)(OCCSC(=O)C(C)(C)C)O[C@H]3C[C@H](n4cc(C)c(=O)[nH]c4=O)O[C@@H]3COP(=O)(O)O[C@H]3C[C@H](n4cc(C)c(=O)[nH]c4=O)O[C@@H]3COP(=O)(OCCSC(=O)C(C)(C)C)O[C@H]3C[C@H](n4cc(C)c(=O)[nH]c4=O)O[C@@H]3COP(=O)(O)O[C@H]3C[C@H](n4cc(C)c(=O)[nH]c4=O)O[C@@H]3COP(=O)(OCCSC(=O)C(C)(C)C)O[C@H]3C[C@H](n4cc(C)c(=O)[nH]c4=O)O[C@@H]3COP(=O)(O)O[C@H]3C[C@H](n4cc(C)c(=O)[nH]c4=O)O[C@@H]3COP(=O)(OCCSC(=O)C(C)(C)C)O[C@H]3C[C@H](n4cc(C)c(=O)[nH]c4=O)O[C@@H]3CO)O2)c(=O)[nH]c1=O (stereo not given in full)
0.25 h	54.7 min		5 min	CO[C@@H]1[C@H](OP(=O)(O)O)[C@@H](COP(=O)(O)O[C@H]2[C@@H](OC)[C@H](n3ccc(=O)[nH]c3=O)O[C@@H]2COP(=O)(O)O[C@H]2[C@@H](OC)[C@H](n3ccc(=O)[nH]c3=O)O[C@@H]2COP(=O)(OCCSC(=O)C(C)(C)C)O[C@H]2C[C@H](n3cc(C)c(=O)[nH]c3=O)O[C@@H]2COP(=O)(OCCSC(=O)C(C)(C)C)O[C@H]2C[C@H](n3cc(C)c(=O)[nH]c3=O)O[C@@H]2COP(=O)(OCCSC(=O)C(C)(C)C)O[C@H]2C[C@H](n3cc(C)c(=O)[nH]c3=O)O[C@@H]2COP(=O)(OCCSC(=O)C(C)(C)C)O[C@H]2C[C@H](n3cc(C)c(=O)[nH]c3=O)O[C@@H]2COP(=O)(OCCSC(=O)C(C)(C)C)O[C@H]2C[C@H](n3cc(C)c(=O)[nH]c3=O)O[C@@H]2COP(=O)(OCCSC(=O)C(C)(C)C)O[C@H]2C[C@H](n3cc(C)c(=O)[nH]c3=O)O[C@@H]2COP(=O)(O)O[C@H]2[C@@H](OC)[C@H](n3cc(C)c(=O)[nH]c3=O)O[C@@H]2COP(=O)(O)O[C@H]2[C@@H](OC)[C@H](n3ccc(=O)[nH]c3=O)O[C@@H]2COP(=O)(O)O[C@H]2[C@@H](OC)[C@H](n3ccc(=O)[nH]c3=O)O[C@@H]2CO)O[C@H]1n1ccc(=O)[nH]c1=O (stereo not given in full)
17 h	58.4 min	Stable		Cc1cn([C@H]2C[C@H](OP(=O)(O)S)[C@@H](COP(=S)(OCCSC(=O)C(C)(C)C)O[C@H]3C[C@H](n4cc(C)c(=O)[nH]c4=O)O[C@@H]3COP(=O)(S)O[C@H]3C[C@H](n4cc(C)c(=O)[nH]c4=O)O[C@@H]3COP(=S)(OCCSC(=O)C(C)(C)C)O[C@H]3C[C@H](n4cc(C)c(=O)[nH]c4=O)O[C@@H]3COP(=O)(S)O[C@H]3C[C@H](n4cc(C)c(=O)[nH]c4=O)O[C@@H]3COP(=S)(OCCSC(=O)C(C)(C)C)O[C@H]3C[C@H](n4cc(C)c(=O)[nH]c4=O)O[C@@H]3COP(=O)(S)O[C@H]3C[C@H](n4cc(C)c(=O)[nH]c4=O)O[C@@H]3COP(=S)(OCCSC(=O)C(C)(C)C)O[C@H]3C[C@H](n4cc(C)c(=O)[nH]c4=O)O[C@@H]3COP(=O)(S)O[C@H]3C[C@H](n4cc(C)c(=O)[nH]c4=O)O[C@@H]3COP(=S)(OCCSC(=O)C(C)(C)C)O[C@H]3C[C@H](n4cc(C)c(=O)[nH]c4=O)O[C@@H]3COP(=O)(S)O[C@H]3C[C@H](n4cc(C)c(=O)[nH]c4=O)O[C@@H]3COP(=S)(OCCSC(=O)C(C)(C)C)O[C@H]3C[C@H](n4cc(C)c(=O)[nH]c4=O)O[C@@H]3CO)O2)c(=O)[nH]c1=O (stereo not given in full)
